Calls of active or inactive are those of the source.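 The calls were made as follows: active = EC50 no more than a set limit of log units above the highest dose; inactive = the rest.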
Target: S. pyogenes SKKanGAS, kanamycin survival, BacTiterGlo, 6 h
Assay: SKKanGAS survival reduction under kanamycin, dose response, streptokinase promoter inhibitor project, SKKanGAS strain, luminescence, dose confirmation (AID 1902);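 also: lower survival reflects blocked streptokinase promoter driving kanamycin resistance gene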

| Compound | EC50 |
| --- | --- |
| CCC1=NN2C(=N)/C(=C\c3cccn3-c3ccc(C)c(C)c3)C(=O)N=C2S1 | 3.91 µM |
| O=C1c2ccccc2C2=Nc3ccccc3SC(c3ccc(Cl)cc3)C12 (stereo unspecified) | 3.9 µM |
| Cc1nnc(NC(=O)c2ccc(S(=O)(=O)N3CC(C)CC(C)C3)cc2)o1 (stereo unspecified) | 5.82 µM |
| Cc1ccc(-c2csc3ncnc(NS(=O)(=O)c4ccc(Cl)cc4)c23)cc1 | 6.82 µM |
| O=C(NNC1=Nc2ccccc2SC1)c1ccc(F)cc1 | 6.87 µM |
| CCCCCCCC(=O)NNC(=O)c1c(O)c2ccccc2n(CCC)c1=O | 1.1 µM |
| Cc1nn(Cc2ccc(Cl)cc2Cl)c(C)c1NC(=O)NC12CC3CC(CC(C3)C1)C2 | 14.2 µM |
| Cc1ccc(C)c(/C=C/C(=O)c2ccccc(=O)c2O)c1 | 1.9 µM |
| CC(=O)NC(c1ccc(Cl)cc1Cl)c1ccc2cccnc2c1O (stereo unspecified) | 4.2 µM |
| NC(=O)NC(=O)CSc1nc2cc([N+](=O)[O-])ccc2n1-c1cccc(C(F)(F)F)c1 | 0.256 µM |
| CCCCCCCN1N=C(C)C(C(=O)c2ccccc2)C1=O (stereo unspecified) | 1.33 µM |
| Cc1cccc(Nc2nc(-c3ccc(F)c(C)c3)cs2)n1 | 8.5 µM |
| COc1ccc2nc(Nc3nc(C)c(C(C)=O)s3)sc2c1 | 6.64 µM |
| Oc1ccc(/C=N/Nc2ccc3ccccc3c2)c(O)c1 | 7.53 µM |
| Cc1cc(=O)[nH]c(SCC(=O)Nc2ccc(Br)cc2)c1C#N | 9.7 µM |
| CSc1ccc(/C=C/c2ccc3cccc(O)c3n2)cc1 | 1.97 µM |
| O=C(COc1ccc(Cl)cc1Cl)Nc1ccc(C(=O)Nc2ccccc2C(=O)O)cc1 | 2.3 µM |
| Clc1ccccc1Sc1ccc(-c2ccccn2)s1 | 5.48 µM |
| O=C(Nc1nnc(SCc2ccc(F)cc2)s1)c1ccccn1 | 0.382 µM |
| Nc1ccc2c(c1)C(=O)C(=O)c1ccccc1-2 | 0.754 µM |
| O=C(O)CN1C(=O)/C(=C\c2cc(Br)ccc2OCc2ccc(Cl)cc2Cl)SC1=S | 1.51 µM |
| O=C(Oc1ccc(Cl)c2cccnc12)c1ccco1 | 3.69 µM |
| O=C(CSc1ccccn1)Nc1nonc1[N+](=O)[O-] | 7.31 µM |

| Compound | EC50 |
| --- | --- |
| Fc1ccc(-c2csc3ncnc(N4CCc5ccccc5C4)c23)cc1 | 2.73 µM |
| Oc1ccccc1/C=N/Nc1nc2ccccc2o1 | 2.42 µM |
| O=C(COc1ccc(Cl)cc1Cl)Nc1ccc(-c2ccc(N3CCOCC3)nn2)cc1 | > 15 µM (inactive) |
| Cc1ccccc1C(=O)NNC(=S)NC(=O)c1cccs1 | 2.31 µM |
| O=C(CNc1cccc2ccccc12)N/N=C/c1ccc[nH]1 | > 15 µM (inactive) |
| CC1CC(=O)c2c(cc3c(-c4c(O)cc(O)c5c(O)c6c(cc45)OC(C)CC6=O)c(O)cc(O)c3c2O)O1 (stereo unspecified) | 0.501 µM |
| Cc1ccc(C(=O)NNC(=S)NC(=O)c2ccccc2)cc1 | 0.955 µM |
| COc1cc(/C=C2/SC(=S)N(Cc3ccccc3)C2=O)ccc1O | 5.8 µM |
| C/C(=N\NC(=O)c1cccc2ccccc12)c1ccccn1 | 3.26 µM |
| Cc1ccc(OCCn2c(NC(=O)c3ccco3)nc3ccccc32)cc1 | 3.58 µM |
| O=C(NNC(=S)NC(=O)c1cccs1)c1ccc(NC(=O)c2ccccc2)cc1 | 0.556 µM |
| COc1ccc(/C=C2/C(=O)N(c3nc4ccccc4s3)N=C2CSc2ccc(Cl)cc2)cc1 | 0.518 µM |
| Cc1ccc(NC(=O)c2cc(N3C(=O)C=CC3=O)ccc2N2CCOCC2)cc1Cl | 11.5 µM |
| COc1ccc2nc(C3CCCCC3)nc(C3CCCCC3)c2c1 | 2.66 µM |
| Cc1onc(-c2ccccc2)c1C(=O)NNC(=S)NC(=O)c1ccc(Br)cc1 | 0.174 µM |
| Oc1c(Cl)cc(Cl)c2c1NCCC2 | 5.37 µM |
| Nc1nc(Nc2ccccc2)nc(NC2CCCCC2)c1[N+](=O)[O-] | 5.57 µM |
| CC1CCCN(S(=O)(=O)c2ccc(C(=O)Nc3nnc(C4=COCCO4)o3)cc2)C1 (stereo unspecified) | 5.27 µM |
| S=C1NC[C@H](CC2CCCCC2)N1CC1CCCCC1 | 7.69 µM |
| c1ccc(Nc2nc(N3CCCCC3)nc(N3CCCCC3)n2)cc1 | 8.25 µM |
| Clc1ccc2nc(-c3ccccn3)c(Nc3ccc4c(c3)OCO4)n2c1 | 6.99 µM |
| O=C(Nc1cccc(-c2csc(Nc3cccc(C(F)(F)F)c3)n2)c1)c1ccccc1 | 4.33 µM |
| CCCN(CC(=O)Nc1ccccc1OC)C(=O)c1ccncc1 | > 15 µM (inactive) |

| Compound | EC50 |
| --- | --- |
| FC(F)Sc1ccc(NC(=S)NC(c2ccccc2)c2ccccc2)cc1 | 2.28 µM |
| CCOC(=O)c1csc(Nc2nc3ccc(F)cc3s2)n1 | 3.21 µM |
| O=C(N/N=C/c1cc(Br)cc(Br)c1O)c1cccc(S(=O)(=O)N2CCOCC2)c1 | 1.17 µM |
| Cc1nn(-c2ccccc2)c(Cl)c1C1C(C#N)=C(N)OC2=C1C(=O)CCC2 (stereo unspecified) | 1.25 µM |
| CCc1nnc(NC(=O)c2sc3nc4cc(C)ccc4cc3c2N)s1 | 3.77 µM |
| O=C(C[n+]1ccc2ccccc2c1)Nc1cc(C(F)(F)F)ccc1Cl | > 15 µM (inactive) |
| O=C1/C(=C\c2cc([N+](=O)[O-])ccc2O)SC(=S)N1Cc1ccc(Cl)cc1 | 2.18 µM |
| O=C(NNC(=S)NC(=O)c1ccccc1)c1cccc([N+](=O)[O-])c1 | 5.82 µM |
| O=C(NCc1ccco1)c1cc2ccc(O)cc2oc1=O | 5.85 µM |
| Cc1nn(C(=O)c2cccnc2)c(C)c1Sc1ccc(Br)cc1 | 4.36 µM |
| CCOC(=O)c1cc(-c2cccs2)nc2c1c(C)nn2-c1ccccn1 | 2.64 µM |
| CCCOc1ccc(C(=O)NNC(=S)NC(=O)c2ccccc2)cc1 | 0.217 µM |
| O=C(Nc1nnc(-c2ccco2)o1)c1ccc(Cl)cc1 | 1.21 µM |
| COc1ccc(-c2ncn(CCC#N)c2[N+](=O)[O-])cc1 | 2.72 µM |
| O=C(C1CCCCC1)N1CCC(c2nc3c(nnn3Cc3c(F)cccc3Cl)c(=O)[nH]2)CC1 | 3.79 µM |
| NC(=NCCCCCCN=C(N)/N=C(\N)Nc1ccc(Cl)cc1)/N=C(\N)Nc1ccc(Cl)cc1 | 0.789 µM |
| O=C(COC(=O)Cc1cn2ccsc2n1)Nc1nc2ccccc2s1 | 2.51 µM |
| COc1cccc(Nc2c3c(nc4c(-c5ccccc5)c(C)nn24)CCC3)c1 | 1.8 µM |
| COc1cccc2sc(Nc3nnc(-c4ccc(F)cc4)o3)nc12 | 0.546 µM |
| COC(=O)c1ccc(Oc2nc3ccccc3n3c(C)nnc23)cc1 | 6.1 µM |
| COc1ccc(C(=O)O)cc1NC(=S)NC(=O)c1ccc(-c2ccc(Cl)cc2)o1 | 2.3 µM |
| Cc1onc(-c2c(Cl)cccc2Cl)c1C(=O)NC1C(=O)N2C1SC(C)(C)C2C(=O)O (stereo unspecified) | < 0.06 µM |
| CC1COc2c(N3CCN(C)CC3)c(F)cc3c(=O)c(C(=O)O)cn1c23 (stereo unspecified) | 3.69 µM |

| Compound | EC50 |
| --- | --- |
| CC(C)(C)c1ccc(C(=O)N2CCN(C(=O)c3ccco3)CC2)cc1 | > 15 µM (inactive) |
| Cc1ccc(C)c(/C=N/NC(=S)NCCc2ccccc2)c1 | 4.05 µM |
| COc1ccc2[nH]c3c(=O)n(/N=C/c4ccc(OC)c(CN5CCCC5)c4)c(C)nc3c2c1 | 7.06 µM |
| COc1ccc(CN(C)S(=O)(=O)c2nnc(NC(=O)c3ccccc3Br)s2)cc1 | 3.51 µM |
| C/C(=N\NC(=O)c1cccc(Br)c1)c1ccccn1 | 0.74 µM |
| Oc1c(C(Nc2cccc(C(F)(F)F)c2)c2cccnc2)ccc2cccnc12 (stereo unspecified) | 1.53 µM |
| Nc1nc(N)c2cc(Sc3ccc4ccccc4c3)ccc2n1 | 0.115 µM |
| COc1ccc(Cl)cc1C(=O)NNC(=S)NC(=O)c1ccc(F)c(F)c1 | 0.139 µM |
| O=C(NC12CC3CC(CC(C3)C1)C2)c1ccc(-c2ccc(Br)cc2)o1 | 11 µM |
| CC12CCC(C/C1=N\N=C1\NC(=O)/C(=C\c3cccc(Br)c3)S1)C2(C)C (stereo unspecified) | 0.638 µM |
| CCOC(=O)c1cnc(-n2nc(C)cc2C)nc1NC1CCCCC1 | < 0.06 µM |
| COc1cc(C(=O)NNC(=S)NC(=O)c2ccc(F)cc2)cc(OC)c1OC | 0.989 µM |
| C/C(=N\NC(=O)c1cc2ccccc2cc1O)c1ccc2c(c1)OCO2 | 2.18 µM |
| COc1cc(OC)cc(C(=O)Nc2nnc(NC(=S)Nc3ccccc3)s2)c1 | 5.13 µM |
| Nc1nc(N)c(C=Nc2ccc(Br)cc2)c(Nc2ccc(Br)cc2)n1 | 1.69 µM |
| CCC(C(=O)NCCCN1CCCC1=O)n1c2ccccc2c2nc(=O)cc(C)n21 (stereo unspecified) | > 15 µM (inactive) |
| Oc1ccc(/C=N/Nc2nc(N3CCCCCC3)nc(N3CCCCCC3)n2)c(O)c1 | 1.73 µM |
| O=C(N/N=C/c1c(O)ccc2ccccc12)Nc1ccccc1 | 7.74 µM |
| COc1cc2c(C(=O)N3CCN(c4ccccc4C)CC3)c(C)oc2cc1Br | 10.3 µM |
| COC(=O)C(Nc1ccccc1Cl)(c1cc(C)c(O)c(C)c1)C(F)(F)F (stereo unspecified) | 2.5 µM |
| CC(C)(C)c1ccc(OCC(O)CS(=O)(=O)c2ccccn2)cc1 (stereo unspecified) | > 15 µM (inactive) |
| CCN(CC(=O)NCC1CCCO1)S(=O)(=O)c1ccc(Cl)cc1 (stereo unspecified) | > 15 µM (inactive) |
| Cc1c(CCOC(=O)C2C3CC4CC(C3)CC2C4)sc[n+]1CC(=O)c1ccc(Br)cc1 (stereo unspecified) | 7.28 µM |

| Compound | EC50 |
| --- | --- |
| CCc1cc(C(=O)N2CCCC(CCC(=O)NCc3cccc(OC)c3)C2)no1 (stereo unspecified) | > 15 µM (inactive) |
| Fc1ccc(CSc2ncnc3sc4c(c23)CCCC4)cc1 | 3.97 µM |
| COc1cccc(C(=O)NC(=S)N2CCN(c3ccc(C(F)(F)F)cc3[N+](=O)[O-])CC2)c1 | > 15 µM (inactive) |
| O=[N+]([O-])c1cccnc1N1CCC(c2cc(-c3ccc(Cl)cc3)n[nH]2)CC1 | 2.96 µM |
| CCCC(=O)NCCc1ccc(F)cc1 | > 15 µM (inactive) |
| O=C(Nc1nc(-c2ccccc2)c(-c2ccccc2)o1)c1ccc(F)cc1 | 0.561 µM |
| C[C@@]12CCC=C[C@H]1[C@H](c1ccc3ccccc3c1Br)N(Cc1ccccc1)C2=O | 3.63 µM |
| Cc1ccsc1C(=O)OCC(=O)c1cc2ccccc2o1 | > 15 µM (inactive) |
| COc1cc(OC)cc(C(=O)Nc2nc3ccccc3[nH]2)c1 | 12.8 µM |
| CC(/C=C1\SC(=S)N(NS(=O)(=O)c2ccc(C)cc2)C1=O)=C\c1ccccc1 | 2.88 µM |
| CC1CCCC(C)N1c1nnc(NC(=O)c2cc(-c3ccc(Br)cc3)on2)s1 (stereo unspecified) | 2.79 µM |
| COc1cc(OC)cc(C(=O)Nc2nc(-c3ccccc3)c(-c3ccccc3)o2)c1 | 0.629 µM |
| O=C(/C=C/c1ccc([N+](=O)[O-])o1)NNC(=O)c1ccc(F)cc1 | 1.8 µM |
| COc1ccc(C(=O)CSc2nc(-c3ccccn3)nc(C)c2Cl)cc1 | 1.4 µM |
| O=C(Nc1nc(-c2cc(Cl)sc2Cl)cs1)c1cccs1 | 8.68 µM |
| Cc1cc(C)n(-c2nc(C)nc(NCc3ccccc3)n2)n1 | > 15 µM (inactive) |
| O=S(=O)(NCCSCc1c(Cl)cccc1Cl)c1ccc2c(c1)OCCO2 | 7.45 µM |
| O=C(Nc1nc(N2C(=O)c3ccccc3C2=O)n(-c2ccccc2)n1)c1ccc(Cl)cc1 | 10.3 µM |
| Cc1cc(C)c(C2C3=C(Nc4c2c(C)nn4-c2ccccn2)c2ccccc2C3=O)c(C)c1 (stereo unspecified) | 1.45 µM |
